# Activity calls are given as the source filed them. The calls are words filed in the database; no cut-off is given here.
# Legend:
# [1] = Cmax in po dosed male Sprague-Dawley rat measured after 24 hrs by LC-MS/MS analysis; assay type: ADME, organism-based; details: in vivo
# [2] = Metabolic stability in rat liver microsomes assessed as half-life at 1 uM measured upto 120 mins in presence of NADPH by LC-MS/MS analysis; assay type: ADME, Microsome
# [3] = Half-life in iv dosed male Sprague-Dawley rat measured after 24 hrs by LC-MS/MS analysis; assay type: ADME, organism-based; details: in vivo
# [4] = AUC (0 to last) in po dosed male Sprague-Dawley rat measured after 24 hrs by LC-MS/MS analysis; assay type: ADME, organism-based; details: in vivo
# [5] = Half-life in po dosed male Sprague-Dawley rat measured after 24 hrs by LC-MS/MS analysis; assay type: ADME, organism-based; details: in vivo
# [6] = Tmax in iv dosed male Sprague-Dawley rat measured after 24 hrs by LC-MS/MS analysis; assay type: ADME, organism-based; details: in vivo
# [7] = Toxicity in male C57BL/6 mouse assessed as prolongation of bleeding time at 10 mg/kg, po measured after 1.5 hrs by tail bleeding assay; assay type: organism-based; details: in vivo
# [8] = biological target: T1, Proteinase-activated receptor 1 (Homo sapiens, UniProt P25116); test: Antagonist activity at human PAR1 expressed in HEK293/Galpha15 cells assessed as inhibition of SFFLRR-NH2-induced calcium mobilization incubated for 30 mins by FLIPR assay; assay type: functional, cell-based
# T1 sequence (P25116 whole entry): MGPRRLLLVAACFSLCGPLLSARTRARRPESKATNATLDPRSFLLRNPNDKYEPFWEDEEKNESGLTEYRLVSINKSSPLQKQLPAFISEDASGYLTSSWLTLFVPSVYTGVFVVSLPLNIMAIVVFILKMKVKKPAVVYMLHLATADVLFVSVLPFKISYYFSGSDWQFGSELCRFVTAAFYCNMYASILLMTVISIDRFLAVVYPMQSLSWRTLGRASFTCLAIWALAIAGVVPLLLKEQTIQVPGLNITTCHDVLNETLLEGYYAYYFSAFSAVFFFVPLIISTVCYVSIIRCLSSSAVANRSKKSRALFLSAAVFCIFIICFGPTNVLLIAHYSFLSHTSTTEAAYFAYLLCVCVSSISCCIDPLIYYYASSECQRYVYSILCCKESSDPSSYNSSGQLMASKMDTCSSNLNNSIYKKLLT
# [9] = biological target: T2, Proteinase-activated receptor 4 (Homo sapiens) (UniProt Q96RI0); test: Antagonist activity at PAR4 in human platelet rich plasma assessed as inhibition of gamma-PAR4 agonist peptide (AYPGKF-NH2)-induced platelet aggregation at 200 nM preincubated for 5 mins followed by peptide addition and measured after 5 mins by aggregometer relative to control; assay type: cell-based; details: filed as antagonist, time 10.0 min
# T2 sequence (whole entry): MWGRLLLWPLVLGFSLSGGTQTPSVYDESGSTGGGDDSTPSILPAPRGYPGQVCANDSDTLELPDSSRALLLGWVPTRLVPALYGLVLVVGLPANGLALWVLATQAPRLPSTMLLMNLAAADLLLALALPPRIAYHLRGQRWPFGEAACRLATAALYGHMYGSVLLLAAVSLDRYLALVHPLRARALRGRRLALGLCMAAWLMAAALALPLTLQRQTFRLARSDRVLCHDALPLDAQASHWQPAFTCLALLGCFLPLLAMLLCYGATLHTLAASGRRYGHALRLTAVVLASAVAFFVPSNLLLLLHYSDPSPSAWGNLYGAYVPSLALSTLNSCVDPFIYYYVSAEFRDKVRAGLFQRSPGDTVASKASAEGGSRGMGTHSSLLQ
# [10] = Antagonist activity at […] expressed in HEK293/Galpha15 cells assessed as inhibition of 2-furoyl-LIGRLO-NH2-induced calcium mobilization incubated for 30 mins by FLIPR assay; assay type: cell-based; details: HEK293/Galpha15, 0.5 h
# [11] = Tmax in po dosed male Sprague-Dawley rat measured after 24 hrs by LC-MS/MS analysis; assay type: ADME, organism-based; details: in vivo
# [12] = AUC (0 to last) in iv dosed male Sprague-Dawley rat measured after 24 hrs by LC-MS/MS analysis; assay type: ADME, organism-based; details: in vivo
# [13] = Cmax in iv dosed male Sprague-Dawley rat measured after 24 hrs by LC-MS/MS analysis; assay type: ADME, organism-based; details: in vivo
# [14] = Metabolic stability in human liver microsomes assessed as half-life at 1 uM measured upto 120 mins in presence of NADPH by LC-MS/MS analysis; assay type: ADME, Microsome
# [15] = Clearance in iv dosed male Sprague-Dawley rat measured after 24 hrs by LC-MS/MS analysis; assay type: ADME, organism-based; details: in vivo
# [16] = Antagonist activity at PAR4 in mouse washed platelets assessed as inhibition of gamma-PAR4 agonist peptide (AYPGKF-NH2)-induced platelet aggregation preincubated for 5 mins followed by peptide addition and measured after 5 mins by aggregometer
# [17] = Oral bioavailability in male Sprague-Dawley rat measured after 24 hrs by LC-MS/MS analysis; assay type: ADME, organism-based; details: in vivo
# [18] = Cytotoxicity against HEK293 cells assessed as reduction in cell viability incubated for 48 hrs by MTT assay; assay type: toxicity, cell-based; details: human
# [19] = Tmax in male Sprague-Dawley rat at 0.5 mg/kg, iv measured after 24 hrs by LC-MS/MS analysis; assay type: ADME, organism-based; details: in vivo
# [20] = test system: Plasma; test: Inhibition of SFFLLRN-NH2 peptide-induced platelet aggregation in human platelet rich plasma at 10 uM preincubated for 5 mins followed by peptide addition and measured after 5 mins by aggregometer; assay type: functional, cell-free
# [21] = test system: Plasma; test: Inhibition of collagen-induced platelet aggregation in human platelet rich plasma at 10 uM preincubated for 5 mins followed by collagen addition and measured after 5 mins by aggregometer; assay type: functional, cell-free
# [22] = Clearance in male Sprague-Dawley rat at 2 mg/kg, po measured after 24 hrs by LC-MS/MS analysis; assay type: ADME, organism-based; details: in vivo
# [23] = biological target: T3, Proteinase-activated receptor 4 (Homo sapiens, UniProt Q96RI0); test: Antagonist activity at human PAR4 expressed in HEK293/Galpha15 cells assessed as inhibition of AYPGKF-NH2-induced calcium mobilization incubated for 30 mins by FLIPR assay; assay type: functional, cell-based
# T3 sequence (Q96RI0 whole entry): T2 sequence (whole entry)
# [24] = Half-life in male Sprague-Dawley rat at 0.5 mg/kg, iv measured after 24 hrs by LC-MS/MS analysis; assay type: ADME, organism-based; details: in vivo
# [25] = test system: Plasma; test: Inhibition of ADP-induced platelet aggregation in human platelet rich plasma at 10 uM preincubated for 5 mins followed by ADP addition and measured after 5 mins by aggregometer; assay type: functional, cell-free
# [26] = Clearance in male Sprague-Dawley rat at 0.5 mg/kg, iv measured after 24 hrs by LC-MS/MS analysis; assay type: ADME, organism-based; details: in vivo
# [27] = Oral bioavailability in male Sprague-Dawley rat at 2 mg/kg measured after 24 hrs by LC-MS/MS analysis; assay type: ADME, organism-based; details: in vivo
# [28] = test system: Plasma; test: Inhibition of thrombin-induced platelet aggregation in human platelet rich plasma at 10 uM preincubated for 5 mins followed by thrombin addition and measured after 5 mins by aggregometer; assay type: functional, cell-free; details: time 10.0 min
# [29] = Cmax in male Sprague-Dawley rat at 2 mg/kg, po measured after 24 hrs by LC-MS/MS analysis; assay type: ADME, organism-based; details: in vivo
# [30] = Protein binding in human plasma at 10 uM incubated for 6 hrs by LC-MS/MS analysis; assay type: ADME, cell-free; details: read-out: PPB (converted)
# [31] = Tmax in male Sprague-Dawley rat at 2 mg/kg, po measured after 24 hrs by LC-MS/MS analysis; assay type: ADME, organism-based; details: in vivo
# [32] = Protein binding in rat plasma at 10 uM incubated for 6 hrs by LC-MS/MS analysis; assay type: ADME, cell-free; details: read-out: PPB (converted)
# [33] = Cmax in male Sprague-Dawley rat at 0.5 mg/kg, iv measured after 24 hrs by LC-MS/MS analysis; assay type: ADME, organism-based; details: in vivo
# [34] = test system: Plasma; test: Inhibition of U46619-induced platelet aggregation in human platelet rich plasma at 10 uM preincubated for 5 mins followed by U46619 addition and measured after 5 mins by aggregometer; assay type: functional, cell-free
# [35] = Half-life in male Sprague-Dawley rat at 2 mg/kg, po measured after 24 hrs by LC-MS/MS analysis; assay type: ADME, organism-based; details: in vivo
# [36] = test system: Plasma; test: Inhibition of […] peptide-induced platelet aggregation in human platelet rich plasma at 10 uM preincubated for 5 mins followed by peptide addition and measured after 5 mins by aggregometer; assay type: functional, cell-free; details: time 10.0 min
# [37] = AUC (0 to last) in male Sprague-Dawley rat at 0.5 mg/kg, iv measured after 24 hrs by LC-MS/MS analysis; assay type: ADME, organism-based; details: in vivo
# [38] = AUC (0 to last) in male Sprague-Dawley rat at 2 mg/kg, po measured after 24 hrs by LC-MS/MS analysis; assay type: ADME, organism-based; details: in vivo
SMILES,half-life at 1 µM [2],Activity [7],IC50 [8],inhibition [9],IC50 [10],half-life at 1 µM [14],IC50 at 48 h [18],Tmax [19],IC50 [20],IC50 [21],CL/F [22],IC50 [23],half-life [24],IC50 [25],clearance [26],bioavailability [27],inhibition [28],Cmax [29],"fraction unbound at 6 h, 10 µM [30]",Tmax [31],further results
COc1cc(Cl)c2nc(-c3cc(C)cc4c(=O)n(C)cnc34)sc2c1,0.532 h,Non-toxic,> 3.16 µM,94.5%,> 1 µM,0.71 h,> 20 µM,–,–,–,–,–,–,–,–,–,–,–,–,–,Cmax [1]: 6.4 ng/mL; half-life [3]: 1.4 h; AUC(0-t) at 24 h [4]: 32 ng·h/mL; half-life [5]: 2.16 h; Tmax [6]: 4.8 min; Tmax [11]: 2.83 h; AUC(0-t) at 24 h [12]: 288 ng·h/mL; Cmax [13]: 571 ng/mL; clearance [15]: 57.7 mL/min/kg; IC50 [16]: 0.084 µM; bioavailability [17]: 3.71%
COc1ncc2c(-c3nc4cc(F)c5c(c4s3)C[C@H](COC(=O)Nc3cccc(C#N)c3)O5)cc(C)cc2n1,1.49 h,Non-toxic,> 3.16 µM,91.2%,> 1 µM,4.16 h,> 20 µM,4.8 min,> 10 µM,> 10 µM,25.4 mL/min/kg,0.00172 µM,5.13 h,> 10 µM,12.8 mL/min/kg,50.5%,Active,214 ng/mL,0.0005,1.67 h,"fraction unbound at 6 h, 10 µM [32]: 0.0002; Cmax [33]: 394 ng/mL; IC50 [34]: > 10 µM; half-life [35]: 5.16 h; inhibition [36]: Active; AUC(0-t) at 24 h [37]: 636 ng·h/mL; AUC(0-t) at 24 h [38]: 1220 ng·h/mL"
COCc1ncc2c(-c3nc4cc(F)c(OCCOC(=O)Nc5cc(F)cc(C#N)c5)cc4s3)cc(C)cc2n1,2.12 h,–,> 3.16 µM,90.3%,> 1 µM,0.747 h,> 20 µM,4.8 min,> 10 µM,> 10 µM,65.3 mL/min/kg,0.0056 µM,2.2 h,> 10 µM,9.5 mL/min/kg,13.2%,Active,146 ng/mL,0.001,1 h,"fraction unbound at 6 h, 10 µM [32]: 0.0011; Cmax [33]: 944 ng/mL; IC50 [34]: > 10 µM; half-life [35]: 1.78 h; inhibition [36]: Active; AUC(0-t) at 24 h [37]: 950 ng·h/mL; AUC(0-t) at 24 h [38]: 488 ng·h/mL"
COc1ncc2c(-c3nc4cc(F)c5c(c4s3)C[C@H](COC(=O)Nc3cc(F)cc(C#N)c3)O5)cc(C)cc2n1,1.73 h,Non-toxic,> 3.16 µM,94.7%,> 1 µM,4.71 h,> 20 µM,4.8 min,> 10 µM,> 10 µM,37.7 mL/min/kg,0.00096 µM,6.89 h,> 10 µM,9.8 mL/min/kg,27.3%,Active,170 ng/mL,0.0004,1 h,"fraction unbound at 6 h, 10 µM [32]: 0.0001; Cmax [33]: 519 ng/mL; IC50 [34]: > 10 µM; half-life [35]: 7.05 h; inhibition [36]: Active; AUC(0-t) at 24 h [37]: 808 ng·h/mL; AUC(0-t) at 24 h [38]: 865 ng·h/mL"
